Results on 20 compounds are retold here after ChEMBL document CHEMBL1126010, “Conformationally restrained analogues of pravadoline: nanomolar potent, enantioselective, (aminoalkyl)indole agonists of the cannabinoid receptor” (J Med Chem, 1992).

pIC50: −log10 of the molar value.

For experiment [1], the system named is Mus musculus. Kind of experiment: In vivo antinociceptive effect was tested in the mouse acetylcholine writhing assay after 100 mg/kg po administration. It is filed as functional. Background: An intraperitoneal irritant provokes the stretching counted in writhing tests.
Experiment [2] is filed under the species Mus musculus. Kind of experiment: Inhibitory activity against PG synthesis was measured in mouse brain microsomes at 30 uM. It is filed as functional.
For experiment [3], the species on record is Mus musculus. Kind of experiment: In vitro inhibition of electrically stimulated contractions of isolated mouse vas deferens. It is filed as functional.
Experiment [4] addresses Cannabinoid receptor (Rattus norvegicus) (UniProt Q9QZN9+P20272). Conditions: Cerebellum; Membrane; at 1 µM.
Description: Inhibition of 0.5 nM [3H](Aminoalkyl)indole binding to cannabinoid receptor in rat cerebellum membranes at 1 uM
Experiment [5] addresses Cannabinoid receptor (Rattus norvegicus, UniProt Q9QZN9+P20272). Kind of experiment: Concentration required to displace 50% of 0.5 nM [3H](aminoalkyl)indole binding to cannabinoid receptor in rat cerebellum membranes. It is filed as cell membranes, Membrane.
Experiment [6] is filed under the species Mus musculus. Kind of experiment: Inhibitory activity against PG synthesis was measured in mouse brain microsomes. Type of experiment: functional.
For experiment [7], the species on record is Mus musculus. Kind of experiment: In vitro inhibition of electrically stimulatedcontradions was measured on isolated mouse vas deferens at 10 uM. Type of experiment: functional.
Experiment [8] relates to Mus musculus. Put plainly: In Vivo antinociceptive effect was tested in the mouse acetylcholine writhing assay after 100 mg/kg po administration. Type of experiment: functional.
For experiment [9], the system named is Mus musculus. Kind of experiment: (§1) in vivo antinociceptive effect was tested in the mouse acetylcholine writhing assay after iv administration. It is filed as functional, organism-based.
Experiment [10] relates to Mus musculus. Kind of experiment: In vivo antinociceptive effect was tested in the mouse acetylcholine writhing assay after po administration. Type of experiment: functional.
Experiment [11] relates to Mus musculus. The description is as §1. Type of experiment: functional.

Chain of Cannabinoid receptor (Rattus norvegicus) (P20272 whole entry, looked up): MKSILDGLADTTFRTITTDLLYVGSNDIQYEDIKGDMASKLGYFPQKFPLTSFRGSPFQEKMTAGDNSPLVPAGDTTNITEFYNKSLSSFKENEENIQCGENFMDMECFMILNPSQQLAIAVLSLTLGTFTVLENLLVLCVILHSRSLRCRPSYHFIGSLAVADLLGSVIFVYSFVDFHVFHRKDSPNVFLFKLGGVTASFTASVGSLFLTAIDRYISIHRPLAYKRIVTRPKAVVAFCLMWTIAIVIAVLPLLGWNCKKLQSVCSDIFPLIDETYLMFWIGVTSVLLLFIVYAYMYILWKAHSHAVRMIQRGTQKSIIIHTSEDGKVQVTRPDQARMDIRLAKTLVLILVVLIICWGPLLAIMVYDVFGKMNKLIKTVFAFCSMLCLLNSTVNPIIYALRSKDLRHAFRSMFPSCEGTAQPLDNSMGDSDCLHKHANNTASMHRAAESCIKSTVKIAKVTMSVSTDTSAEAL
Chain of Cannabinoid receptor (Rattus norvegicus) (Q9QZN9 whole entry, looked up): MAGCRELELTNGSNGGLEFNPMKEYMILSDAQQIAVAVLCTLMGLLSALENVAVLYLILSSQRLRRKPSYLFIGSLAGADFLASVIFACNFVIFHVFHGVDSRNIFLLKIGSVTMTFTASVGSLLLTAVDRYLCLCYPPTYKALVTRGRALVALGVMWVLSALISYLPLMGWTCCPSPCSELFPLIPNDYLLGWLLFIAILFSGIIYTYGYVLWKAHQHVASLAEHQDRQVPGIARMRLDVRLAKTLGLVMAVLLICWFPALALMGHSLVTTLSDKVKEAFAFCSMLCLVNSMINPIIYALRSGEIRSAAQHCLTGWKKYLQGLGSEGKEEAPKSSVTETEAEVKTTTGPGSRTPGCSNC

In general, inhibition in vivo refers to the change of the read-out against control, counted positive when it falls. A low value points to a weak effect. One may read the inhibition as the relative decrease from the control value, in per cent. As usually defined, the pIC50 is the negative decadic logarithm of the IC50, by convention in mol/L. A higher pIC50 goes with a low IC50. `COc1ccc(C(=O)c2c(C)n3c4c(cccc24)CC(N2CCOCC2)C3)cc1` (centres undefined) returned an inhibition in vivo at 100 mg/kg in [1] of 30%. Also, the inhibition in experiment [2] is 12%; in [4], 1.4%. In experiment [3] (Mus musculus), this compound had a pIC50 below 5.00.
In the case of `COc1ccc(C(=O)c2c3n(c4ccccc24)CC(N2CCOCC2)C3)cc1` (centres undefined), the inhibition in [2] amounted to 18%. In [3] (Mus musculus), this compound showed a pIC50 below 5.00.
As usually defined, the IC50 is the concentration needed to halve the response being measured. A higher IC50 goes with lower potency. Take `COc1ccc(C(=O)c2c(C)n3c4c(cccc24)OC[C@H]3CN2CCOCC2)cc1`: the IC50 in experiment [5] is 106 nM. Also, the results for the pIC50 in experiment [6] and in experiment [3] (Mus musculus) were 4.30 and 7.36, respectively.
In turn, `Cc1c(C(=O)c2cccc3ccccc23)c2cccc3c2n1[C@H](CN1CCOCC1)CO3` (stereo in doubt; 21) [WIN-552122] had a pIC50 in [3] of 8.22.
For `CCc1c(C(=O)c2ccc(OC)cc2)c2cccc3c2n1C(CN1CCOCC1)CO3` (centres undefined), the inhibition at 10 µM in experiment [7] is 28%. For the same compound, the inhibition in [4] came out at 27%.
`O=C(c1cccc2ccccc12)c1cn2c3c(cccc13)OCC2CN1CCOCC1` (centres undefined) had an IC50 in [5] of 7.37 nM. Besides, the pIC50 in [3] (Mus musculus) is 8.70.
In turn, `Cc1c(C(=O)c2ccc3ncccc3c2)c2cccc3c2n1C(CN1CCOCC1)CO3` (centres undefined) returned a 50% inhibitory concentration (IC50) in [5] of 132.5 nM. The pIC50 is 4.59 in experiment [6] and 7.68 in experiment [3] (Mus musculus).
Take `Cc1c(C(=O)c2cccc3ccccc23)c2cccc3c2n1[C@H](CN1CCOCC1)CO3` (stereo in doubt) [WIN-552122]: the pIC50 in experiment [6] was 5.05; in [3], 9.37.
Turning to `C[C@H](CCCc1ccccc1)Oc1cc(O)c2c(c1)N[C@@H](C)[C@@H]1CC[C@@H](O)C[C@@H]21`, the IC50 in [5] is 0.46 nM. In experiment [3] (Mus musculus), this compound showed a pIC50 of 8.64.
As for `Cc1c(C(=O)c2cccc3ccccc23)c2cccc3c2n1[C@@H](CN1CCOCC1)CO3`, the inhibition in vivo at 100 mg/kg in [8] came to 10%. Also, the pIC50 is 5.00 in experiment [6] and below 5.00 in experiment [3] (Mus musculus).
In experiment [5], `COc1ccc(C(=O)c2c3n(c4ccccc24)C(CN2CCOCC2)CC3)cc1` (centres undefined) registered an IC50 of 3053 nM. The compound also had a pIC50 in experiment [3] (Mus musculus) of 6.49.
Take `COc1ccc(C(=O)c2c(C)n3c4c(cccc24)OCC3CN2CCOCC2)cc1` (centres undefined): in [5], the IC50 is 152 nM. This compound registered an inhibition in vivo at 100 mg/kg in [8] of 30%. Further, the pIC50 was 5.40 in experiment [9], 4.14 in experiment [6] and 6.91 in [3] (Mus musculus).
In experiment [5], `COc1ccc(C(=O)c2c(C)n3c4c(cccc24)OC[C@@H]3CN2CCOCC2)cc1` yielded a half-inhibitory concentration (IC50) of 17500 nM. Besides, the values for the pIC50 in experiment [6] and in experiment [3] (Mus musculus) were 4.52 and below 5.00, respectively.
`Cc1c(C(=O)c2ccccc2F)c2cccc3c2n1C(CN1CCOCC1)CO3` (centres undefined) had an IC50 in experiment [5] of 1426 nM. Besides, the negative-log IC50 (pIC50) in [6] was 4.38; in experiment [3] (Mus musculus), 7.12.
Turning to `COc1ccc2c(c1)c(CC(=O)O)c(C)n2C(=O)c1ccc(Cl)cc1` [INDOMETHACIN], the results for the pIC50 in experiment [6] and in [3] (Mus musculus) were 6.30 and below 5.00, respectively.
A word on the ED50: it is the midpoint of the dose-response relation. Read a high ED50 as a need for a large dose. `COc1ccc(C(=O)c2c3n(c4ccccc24)CCC3N2CCOCC2)cc1` (centres undefined) had an ED50 in experiment [10] of 91 mg/kg. Also, the inhibition in experiment [2] turned out to be 49%. This compound also had a negative logarithm of the IC50 (pIC50) in experiment [3] (Mus musculus) below 5.00.
For `COc1ccc(C(=O)c2c(C)n(CCN3CCOCC3)c3ccccc23)cc1` [PRAVADOLINE], the IC50 in experiment [5] is reported as 3155 nM. Moreover, the ED50 in experiment [10] is 26 mg/kg; in experiment [11], 4 mg/kg. For the same compound, the figures for the pIC50 in [6] and in [3] (Mus musculus) were 5.30 and 6.34, respectively.
For `COc1ccc(C(=O)c2cn3c4c(cccc24)OCC3CN2CCOCC2)cc1` (centres undefined), the half-maximal inhibitory concentration (IC50) in experiment [5] worked out at 249 nM. Besides, the ED50 in experiment [10] was 2 mg/kg. Further, the pIC50 in experiment [3] (Mus musculus) was 7.34. The inhibition in experiment [4] is -9%.
In the case of `Cc1c(C(=O)c2ccc(Br)c3ccccc23)c2cccc3c2n1C(CN1CCOCC1)CO3` (centres undefined), the IC50 in [5] is 2.32 nM. Moreover, the pIC50 in [3] (Mus musculus) was 8.66.
`Cc1c(C(=O)c2cccc3c(Br)cc(Br)cc23)c2cccc3c2n1[C@H](CN1CCOCC1)CO3`: the IC50 in experiment [5] is 48.3 nM.
